In patent US20250000855A1, “USE OF APOMORPHINE AS THERAPEUTIC AGENT FOR NECROPTOSIS-RELATED DISEASES” (INDUSTRY-ACADEMIC COOPERATION FOUNDATION, YONSEI UNIVERSITY, priority 2021, published 2025):
pKd: −log10 of the molar value.

Experiments:
MLKL oligomerization = MLKL oligomerization (tetramer and octamer bands) by non-reducing or reducing SDS-PAGE; format: cell-based, human; settings: cytoplasmic and membrane fractions, necroptosis induced with TBZ, FIG. 2 / FIG. 6A
Protocol: Cells were pretreated with Z-VAD (invivoGen, tlrl-vad) and a compound for 1 hour, and necroptosis was induced with TNF-α (ATGen, TNF0501) and BV6 (Biovision, B1332-5) for the indicated time. The prepared cells were appropriately treated according to analysis (Z-VAD: carbobenzoxy-valyl-alanyl-aspartyl, TNF-α: tumor necrosis factor-α, BV6: 4,4′-(1,6-hexanediyl)bis[N-methyl-L-alanyl-(2S)-2-cyclohexylglycyl-L-prolyl-β-phenyl-L-phenylalaninamide)
Cells were treated with a drug candidate and then collected using centrifugation at 4° C. and 1,500×g for 5 minutes. A supernatant was centrifuged again at 4° C. and 1,500×g for 5 minutes to remove remaining debris, concentrated at 4° C. and 14,000×g for 30 minutes using Amicon ultra-0.5 centrifugal filter unit 10K (Millipore, UFC501096), and stored. […] The extracted protein concentration was measured using a bicinchoninic acid (BCA) protein assay kit (Thermo Fisher Scientific, 23225). […]
To test whether the tetramer and octamer formation of p-MLKL for pore formation in the cell membrane is inhibited by apomorphine (APO), cells that had been treated with each molecule for the indicated time were separated into cytoplasmic and membrane fractions and analyzed through non-reducing or reducing sodium dodecyl sulfate-polyacrylamide gel electrophoresis (SDS-PAGE), and then investigated with specific antibodies (Experimental Method 1-6). […]

MLKL protein = molecular target: T1, MLKL protein (Homo sapiens, UniProt Q8NB16); assay: Surface plasmon resonance (SPR) analysis, binding to MLKL protein; settings: MLKL immobilized on CM5 chip, Biacore T200, 25° C., 10 mM HEPES pH 7.4
T1 construct: purchased Abcam ab241453
T1 sequence (Q8NB16 1-471): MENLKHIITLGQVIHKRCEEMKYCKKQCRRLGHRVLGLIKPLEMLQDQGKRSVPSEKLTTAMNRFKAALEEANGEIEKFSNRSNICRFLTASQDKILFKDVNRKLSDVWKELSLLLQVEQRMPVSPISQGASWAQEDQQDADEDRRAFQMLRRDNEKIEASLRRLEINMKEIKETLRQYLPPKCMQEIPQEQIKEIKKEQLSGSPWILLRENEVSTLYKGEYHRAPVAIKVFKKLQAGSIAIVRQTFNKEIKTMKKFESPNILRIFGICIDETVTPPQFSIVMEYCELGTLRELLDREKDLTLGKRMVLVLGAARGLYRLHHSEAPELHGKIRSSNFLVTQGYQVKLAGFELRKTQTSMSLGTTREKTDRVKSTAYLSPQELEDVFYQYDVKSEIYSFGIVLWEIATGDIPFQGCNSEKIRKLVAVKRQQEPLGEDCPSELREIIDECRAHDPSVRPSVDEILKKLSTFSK
Protocol: The interaction between MLKL and apomorphine (=APO) was detected through surface plasmon resonance (SPR) analysis using Biacore T200 (GE Healthcare). For pH scouting, a buffer consisting of 10 mM sodium acetate (pH 4.0 to 6.0) was used. MLKL protein (Abcam, ab241453), and MLKL N-term (amino acids 1-154) protein that had been purified in a laboratory were immobilized on the surface of a sensor chip CM5 (GE Healthcare) under scouted buffer conditions. To deduce an Rligand value, a coupling process was performed based on the molecular weights of MLKL, MLKL N-term domain (MW ligand), and APO (MW analyte). Oxidized (24 hr, RT incubation) and reduced (+DTT(DL-dithiothreitol)) forms of APO were injected into a running buffer (flow rate: 10 μl/min) consisting of 10 mM HEPES (pH 7.4) at 25° C. A sensorgram was recorded and analyzed in real time using control software provided by the Biacore T200 system itself. Six or more concentrations of APO were used in combination, and each KD value was derived. All run data was calculated using BIAevaluation Software (GE Healthcare).
SPR analysis was used to analyze the interaction pattern between APO and the MLKL protein (Experimental Method 1-10). […] Here, the analysis was performed by binding MLKL and the MLKL N-term domain protein immobilized on a CM5 chip with APO having six concentrations.

`CN1CCc2cccc3c2[C@H]1Cc1ccc(O)c(O)c1-3` [APO, apomorphine] was tested, and the “intensities of the tetramer and octamer bands of MLKL” value (MLKL oligomerization) was “decreased” and the pKd (MLKL protein) was 7.90.
